# Assay results: ChEMBL document CHEMBL1201862, “PubChem BioAssay data set” (2004)
# Calls of active or inactive are those of the source.
# Key:
# Cytochrome P450 2C19 = Cytochrome P450 2C19 (Homo sapiens, UniProt P33261); assay: Cytochrome panel assay with activity outcomes. Panel member name: p450-cyp2c19 Compounds with AC50 equal or less than 10 uM are considered active; format: functional
# [1] = HEp-2 cell cytotoxicity, dose response, cytotoxicity control for RSV inhibitor project, HTS (AID 2410); format: functional; conditions: human respiratory syncytial virus
# Cytochrome P450 2C9 = Cytochrome P450 2C9 (Homo sapiens, UniProt P11712)
# [2] = biological target: T1, Heat shock factor protein 1 (Mus musculus, UniProt P38532); assay: HSF1 potentiators in luciferase reporter cells, confirmation, cell-based, NIH3T3, luminescence, dose retest (AID 435004); format: functional;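 further: stress induced by proteasome inhibitor MG132 added 30 min after compound; luciferase reporter driven by HSF1 response element in NIH3T3 cells; actives raise luminescence as potentiators of the MG132 stress response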
# T1 sequence (P38532 whole entry): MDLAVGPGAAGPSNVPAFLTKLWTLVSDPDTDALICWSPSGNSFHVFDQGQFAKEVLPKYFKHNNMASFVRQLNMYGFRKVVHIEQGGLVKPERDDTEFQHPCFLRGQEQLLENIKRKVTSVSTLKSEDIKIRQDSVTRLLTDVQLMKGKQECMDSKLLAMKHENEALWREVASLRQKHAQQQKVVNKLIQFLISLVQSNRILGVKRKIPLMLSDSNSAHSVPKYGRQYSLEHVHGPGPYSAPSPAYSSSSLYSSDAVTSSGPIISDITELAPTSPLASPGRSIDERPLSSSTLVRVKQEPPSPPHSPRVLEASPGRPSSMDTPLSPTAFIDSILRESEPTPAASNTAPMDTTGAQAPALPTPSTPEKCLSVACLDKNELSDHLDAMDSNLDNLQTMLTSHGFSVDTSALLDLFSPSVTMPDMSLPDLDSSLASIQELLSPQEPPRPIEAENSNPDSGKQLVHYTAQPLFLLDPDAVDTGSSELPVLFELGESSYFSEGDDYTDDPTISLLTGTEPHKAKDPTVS
# [3] = Luminescence Cell-Based Dose Retest to Confirm Inhibitors of Cancer Stem Cells. [Related pubchem assays (depositor defined):AID2717, AID2721]; format: functional; conditions: Homo sapiens
# H4 = assay: Luminescence Cell-Based Dose Response HTS to Identify Activators of 5'UTR Stem-Loop Driven Prion Protein mRNA Translation in H4 Neuroglioblastoma Cells. [Related pubchem assays: 1829 (Project Summary), 1814 (Primary HTS)]; format: functional; conditions: Homo sapiens
# Cytochrome P450 1A2 = biological target: T2, Cytochrome P450 1A2 (Homo sapiens, UniProt P05177);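 further: PubChem cytochrome P450 panel assay, CYP1A2 panel member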
# T2 sequence (P05177 whole entry): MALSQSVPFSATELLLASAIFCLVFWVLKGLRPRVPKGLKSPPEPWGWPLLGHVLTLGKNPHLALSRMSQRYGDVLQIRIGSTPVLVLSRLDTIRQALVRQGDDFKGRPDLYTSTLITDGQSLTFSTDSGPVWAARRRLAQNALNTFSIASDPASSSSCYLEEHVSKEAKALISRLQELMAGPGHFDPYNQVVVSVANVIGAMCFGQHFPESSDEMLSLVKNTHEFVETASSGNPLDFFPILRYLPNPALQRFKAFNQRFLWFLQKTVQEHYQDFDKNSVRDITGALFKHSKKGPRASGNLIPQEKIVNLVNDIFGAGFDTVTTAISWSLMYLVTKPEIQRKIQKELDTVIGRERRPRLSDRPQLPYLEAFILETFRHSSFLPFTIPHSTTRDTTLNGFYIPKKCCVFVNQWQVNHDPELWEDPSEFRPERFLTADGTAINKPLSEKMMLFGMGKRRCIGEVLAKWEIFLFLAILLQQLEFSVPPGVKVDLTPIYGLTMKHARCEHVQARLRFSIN
# Streptococcus = assay: Group A Streptococcus viability loss, dose response, counter-screen for streptokinase expression inhibitor project, luminescence, BacTiterGlo (AID 1915); format: functional, organism-based;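 further: potency for reduction of bacterial viability or growth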
# Streptokinase A = biological target: T3, Streptokinase A (Streptococcus pyogenes serotype M1, UniProt P10520); assay: S. pyogenes streptokinase expression inhibitors, potency, dose response, plasminogen activation absorbance, OD405 (AID 1914); format: functional, Streptococcus pyogenes M1 GAS;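 further: secreted streptokinase activity via plasminogen activation per viability signal from cell pellet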
# T3 sequence (P10520 whole entry): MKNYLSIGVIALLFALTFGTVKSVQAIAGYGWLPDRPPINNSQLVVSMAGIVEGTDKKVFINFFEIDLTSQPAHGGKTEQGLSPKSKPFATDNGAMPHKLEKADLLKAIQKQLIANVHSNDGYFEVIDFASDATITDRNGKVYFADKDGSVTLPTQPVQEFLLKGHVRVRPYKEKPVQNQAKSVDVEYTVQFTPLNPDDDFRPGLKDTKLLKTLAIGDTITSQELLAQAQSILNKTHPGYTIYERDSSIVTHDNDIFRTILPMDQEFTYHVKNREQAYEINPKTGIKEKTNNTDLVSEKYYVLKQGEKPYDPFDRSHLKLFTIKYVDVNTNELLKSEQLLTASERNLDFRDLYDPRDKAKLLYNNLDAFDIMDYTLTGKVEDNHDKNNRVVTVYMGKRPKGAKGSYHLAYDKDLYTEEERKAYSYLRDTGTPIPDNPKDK
# [4] = tested on: Streptococcus sp. 'group A'; assay: growth inhibition of control SK(-) GAS strain, dose response, counter-screen for streptokinase expression inhibitor project, luminescence, kanamycin, BacTiterGlo, confirmation (AID 1900); format: functional, organism-based
# [5] = NIH-3T3 fibroblast cytotoxicity, dose response, cytotoxicity control, cell-based, fluorescence, Alamar Blue, secondary assay (AID 2327); format: functional;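 further: NIH-3T3 mouse fibroblasts cultured with fluconazole at 8 µg/mL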
# [6] = C. albicans growth with fluconazole, confirmation, fluorescence, retest (AID 2467); format: functional, cell-based
# Chain of Cytochrome P450 2C19 (P33261 whole entry): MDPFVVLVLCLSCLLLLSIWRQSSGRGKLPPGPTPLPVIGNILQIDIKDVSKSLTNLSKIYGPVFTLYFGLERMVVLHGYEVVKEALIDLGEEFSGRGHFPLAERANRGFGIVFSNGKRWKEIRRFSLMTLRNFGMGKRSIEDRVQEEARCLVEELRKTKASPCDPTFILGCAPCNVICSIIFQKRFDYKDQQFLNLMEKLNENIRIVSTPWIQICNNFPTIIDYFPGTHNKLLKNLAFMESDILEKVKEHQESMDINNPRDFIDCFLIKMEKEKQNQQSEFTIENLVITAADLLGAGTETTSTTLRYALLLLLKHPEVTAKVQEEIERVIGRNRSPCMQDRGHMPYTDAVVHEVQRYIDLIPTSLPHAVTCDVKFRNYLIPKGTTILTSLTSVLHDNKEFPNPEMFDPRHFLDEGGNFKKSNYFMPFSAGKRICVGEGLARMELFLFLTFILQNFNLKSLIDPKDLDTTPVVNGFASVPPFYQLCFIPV
# Chain of Cytochrome P450 2C9 (P11712 whole entry): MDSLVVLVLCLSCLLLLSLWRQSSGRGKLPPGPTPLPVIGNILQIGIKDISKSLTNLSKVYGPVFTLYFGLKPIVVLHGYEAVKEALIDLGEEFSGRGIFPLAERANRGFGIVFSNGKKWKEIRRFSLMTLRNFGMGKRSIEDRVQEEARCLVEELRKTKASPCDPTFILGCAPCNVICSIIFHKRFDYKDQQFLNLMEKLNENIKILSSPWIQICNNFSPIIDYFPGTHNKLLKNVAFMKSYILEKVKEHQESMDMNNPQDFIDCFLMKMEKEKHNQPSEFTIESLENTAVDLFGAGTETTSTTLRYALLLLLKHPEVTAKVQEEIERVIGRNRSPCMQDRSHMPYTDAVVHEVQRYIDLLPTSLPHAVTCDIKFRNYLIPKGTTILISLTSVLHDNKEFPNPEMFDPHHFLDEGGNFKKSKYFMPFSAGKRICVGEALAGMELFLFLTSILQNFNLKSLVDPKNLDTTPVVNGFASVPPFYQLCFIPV
structure (smiles),measurement,setting,value
C[N+]1(C)C[C@@H](O)C[C@@H]1C(=O)[O-] [BETONICINE],AC50,Cytochrome P450 2C19,inconclusive
CC(C)(C)OC(=O)COc1cc(OCC(=O)OC(C)(C)C)c2c(=O)cc(-c3ccccc3)oc2c1,CC50,[1],19.6 µM (active)
same,AC50,Cytochrome P450 2C9,2 µM (inconclusive)
Cc1ccc(-n2c3c(c(=O)[nH]c2=O)C(C(F)(F)F)(C(F)(F)F)NC(=O)N3)cc1,AC50,Cytochrome P450 2C9,20 µM (inconclusive)
same,AC50,Cytochrome P450 2C19; read-out: AC50,39.8 µM (inconclusive)
CCOc1nc(NCCc2ccc(OC)c(OC)c2)nc(NC(C)(C)CO)n1,AC50,Cytochrome P450 2C9,31.6 µM (inconclusive)
COc1ccc(CN2CC(C(=O)NCCCN3CCOCC3)CC2=O)cc1 (stereo not given),EC50,[2],> 260 µM (inactive)
COc1cccc(C(=O)c2c(C)c(CCC#N)n3ccccc23)c1OC,EC50,[2],> 260 µM (inactive)
COc1ccc(CNS(=O)(=O)c2cc(CN3C(=O)c4cccnc4C3=O)ccc2OC)cc1,EC50,[2],> 260 µM (inactive)
CC(C)c1ccc(/C=N/NC(=O)c2cccc(Cl)c2)cc1,AC50,[3],2.88 µM (active)
same,EC50,H4,43.1 µM (active)
COCCn1nc2cc(C(=O)NCc3cc(C(F)(F)F)cc(C(F)(F)F)c3)ccc2c1OC,AC50,Cytochrome P450 2C19; read-out: AC50,3.16 µM (inconclusive)
COc1cccc(Nc2ncc3nc(-c4cc(F)cc(F)c4)c(=O)n(C4CC4)c3n2)c1,AC50,Cytochrome P450 1A2,6.31 µM (inconclusive)
Cc1c(C(=O)NCCN(C)C)oc2ccc(S(=O)(=O)N3CCCC3)cc12,EC50,[2],> 260 µM (inactive)
S=c1[nH]cc(Cc2ccccc2)s1,EC50,[2],> 260 µM (inactive)
COc1cc(/C=C/C(=O)N2CCOCC2)ccc1OCc1ccccc1,EC50,[2],> 260 µM (inactive)
CC(NC(=O)Cn1c(=O)[nH]c2ccsc2c1=O)C12CC3CC(CC(C3)C1)C2 (stereo not given),EC50,Streptococcus,> 150 µM (not active)
same,EC50,Streptokinase A,> 150 µM (not active)
same,EC50,[4],> 150 µM (not active)
CC(=O)[C@@]1(O)CC[C@H]2[C@H]3C[C@@H](C)C4=CC(=O)C=C[C@]4(C)[C@@]3(F)[C@@H](O)C[C@]21C,AC50,Cytochrome P450 2C9,12.6 µM (inconclusive)
CC[C@H](C)/C=C(C)/C=C/C(=O)Cc1cc(O)c(C)c(O)c1C=O,EC50,[2],27.5 µM (active)
O=C(N/N=C/c1cc([N+](=O)[O-])ccc1O)C(O)(c1ccccc1)c1ccccc1,EC50,Streptococcus,9.11 µM (active)
same,EC50,Streptokinase A,> 150 µM (not active)
same,EC50,[5],> 150 µM (inactive)
same,EC50,[6],2.29 µM (active)
same,EC50,[4],3.11 µM (active)
c1cn2c(NC3CCCCC3)c(-c3ccc(SC4CCCCC4)cc3)nc2cn1,AC50,[3],3.13 µM (active)
same,EC50,Streptococcus,4.27 µM (active)
same,EC50,Streptokinase A,> 150 µM (not active)
same,EC50,[4],1.01 µM (active)
Cc1cc(NC(=O)c2cc(C)on2)n(-c2ccccc2)n1,EC50,[2],> 260 µM (inactive)
CC(C)SC1=NC(/C=C/c2ccc(Cl)cc2Cl)=CC(C)(C)N1,EC50,[2],38.9 µM (active)
Cc1ccc(NC(=O)COC(=O)/C=C/c2ccc(Br)o2)cc1S(=O)(=O)N(C)C,EC50,[2],> 260 µM (inactive)
O=C(O)[C@H]1[C@H]2c3ccccc3[C@H](c3ccccc32)[C@@H]1C(=O)NCC1CC1,AC50,Cytochrome P450 2C19; read-out: AC50,3.98 µM (inconclusive)
CCOC(=O)N1CCN(S(=O)(=O)c2cc(Cl)c(OC)cc2Cl)CC1,EC50,[2],> 260 µM (inactive)
